Measured values: the NIST ThermoML archive (doi:10.1021/je060271a)
Several values for one entry are separate records, joined by “and”; a condition that tells them apart may be missing. Equal values may be shown once.

Conditions: Liquid, Vibrating tube method

CCCCCC(=O)OCC(COC(=O)CCCCC)(COC(=O)CCCCC)COC(=O)CCCCC [pentaerythritol tetrahexanoate]
Conditions	mass density
343.15 K, 29943 kPa	978.1 kg/m3
343.15 K, 29977 kPa	978.2 kg/m3
343.15 K, 30005 kPa	978.1 kg/m3
343.15 K, 30034 kPa	978.2 kg/m3
343.15 K, 30068 kPa	978.2 kg/m3
343.15 K, 34037 kPa	980.7 kg/m3 and 980.8 kg/m3
343.15 K, 34038 kPa	980.6 kg/m3
343.15 K, 34070 kPa	980.7 kg/m3
343.15 K, 34080 kPa	980.7 kg/m3
343.15 K, 34257 kPa	980.8 kg/m3
343.15 K, 34258 kPa	980.9 kg/m3
343.15 K, 34259 kPa	981 kg/m3 and 980.9 kg/m3
343.15 K, 34260 kPa	980.7 kg/m3 and 980.8 kg/m3
343.15 K, 34261 kPa	980.8 kg/m3
343.15 K, 34262 kPa	980.8 kg/m3 and 980.9 kg/m3
343.15 K, 34263 kPa	980.7 kg/m3
343.15 K, 34264 kPa	980.9 kg/m3 and 980.8 kg/m3
343.15 K, 34271 kPa	980.8 kg/m3
343.15 K, 34272 kPa	980.9 kg/m3
343.15 K, 34279 kPa	980.9 kg/m3 and 981 kg/m3
343.15 K, 34280 kPa	980.8 kg/m3 and 980.9 kg/m3
343.15 K, 34281 kPa	980.9 kg/m3
343.15 K, 34282 kPa	980.8 kg/m3 and 980.9 kg/m3
343.16 K, 205.2 kPa	957.2 kg/m3
343.16 K, 205.3 kPa	957.3 kg/m3
343.16 K, 205.5 kPa	957.1 kg/m3 and 957.3 kg/m3
343.16 K, 205.7 kPa	957.3 kg/m3
343.16 K, 205.9 kPa	957.3 kg/m3 and 957.2 kg/m3
343.16 K, 206 kPa	957.2 kg/m3 and 957.3 kg/m3
343.16 K, 206.2 kPa	957.2 kg/m3 and 957.3 kg/m3
343.16 K, 206.4 kPa	957.3 kg/m3 and 957.2 kg/m3
343.16 K, 206.6 kPa	957.2 kg/m3
343.16 K, 206.7 kPa	957.2 kg/m3
343.16 K, 207.1 kPa	957.3 kg/m3
343.16 K, 207.4 kPa	957.3 kg/m3 and 957.1 kg/m3
343.16 K, 207.6 kPa	957.2 kg/m3 and 957.1 kg/m3
343.16 K, 207.8 kPa	957.3 kg/m3
343.16 K, 207.9 kPa	957.3 kg/m3 and 957.2 kg/m3
343.16 K, 208 kPa	957.1 kg/m3 and 957.3 kg/m3
343.16 K, 208.1 kPa	957.2 kg/m3 and 957.3 kg/m3
343.16 K, 208.5 kPa	957.4 kg/m3 and 957.2 kg/m3 and 957.3 kg/m3
343.16 K, 208.6 kPa	957.2 kg/m3 and 957.1 kg/m3
343.16 K, 208.7 kPa	957.2 kg/m3
343.16 K, 209.9 kPa	957.1 kg/m3
343.16 K, 210 kPa	957.4 kg/m3 and 957.2 kg/m3
343.16 K, 210.2 kPa	957.4 kg/m3
343.16 K, 210.4 kPa	957.2 kg/m3
343.16 K, 210.6 kPa	957.2 kg/m3
343.16 K, 210.9 kPa	957.2 kg/m3
343.16 K, 211.1 kPa	957.3 kg/m3 and 957.2 kg/m3
343.16 K, 211.3 kPa	957.2 kg/m3 and 957.3 kg/m3
343.16 K, 211.4 kPa	957.3 kg/m3
343.16 K, 211.6 kPa	957.2 kg/m3
343.16 K, 211.8 kPa	957.2 kg/m3
343.16 K, 211.9 kPa	957.4 kg/m3 and 957.2 kg/m3 and 957.5 kg/m3
343.16 K, 212.1 kPa	957 kg/m3
343.16 K, 212.3 kPa	957.3 kg/m3
343.16 K, 212.6 kPa	957.3 kg/m3
343.16 K, 214.2 kPa	957.2 kg/m3 and 957.4 kg/m3
343.16 K, 214.4 kPa	957.2 kg/m3
343.16 K, 214.5 kPa	957.3 kg/m3
343.16 K, 214.6 kPa	957.2 kg/m3
343.16 K, 214.7 kPa	957.2 kg/m3
343.16 K, 214.9 kPa	957.3 kg/m3 and 957.2 kg/m3
343.16 K, 215.1 kPa	957.2 kg/m3
343.16 K, 215.8 kPa	957.2 kg/m3
343.16 K, 216.1 kPa	957.3 kg/m3 and 957.1 kg/m3
343.16 K, 216.3 kPa	957.3 kg/m3 and 957.4 kg/m3
343.16 K, 216.8 kPa	957.4 kg/m3
343.16 K, 217 kPa	957.3 kg/m3 and 957.2 kg/m3
343.16 K, 217.5 kPa	957.4 kg/m3 and 957.3 kg/m3
343.16 K, 217.7 kPa	957.1 kg/m3 and 957.5 kg/m3 and 957.2 kg/m3
343.16 K, 217.9 kPa	957.3 kg/m3 and 957.2 kg/m3
343.16 K, 218 kPa	957.2 kg/m3 and 957.3 kg/m3
343.16 K, 218.2 kPa	957.3 kg/m3 and 957.2 kg/m3
343.16 K, 218.6 kPa	957.3 kg/m3 and 957.2 kg/m3
343.16 K, 218.7 kPa	957.4 kg/m3
343.16 K, 219.6 kPa	957.3 kg/m3
343.16 K, 219.8 kPa	957.3 kg/m3
343.16 K, 221 kPa	957.2 kg/m3
343.16 K, 221.2 kPa	957.2 kg/m3 and 957.3 kg/m3
343.16 K, 221.3 kPa	957.3 kg/m3
343.16 K, 221.5 kPa	957.2 kg/m3
343.16 K, 221.7 kPa	957.1 kg/m3 and 957.3 kg/m3
343.16 K, 221.9 kPa	957.2 kg/m3
343.16 K, 222.1 kPa	957.3 kg/m3
343.16 K, 222.2 kPa	957.3 kg/m3 and 957.2 kg/m3
343.16 K, 222.4 kPa	957.3 kg/m3
343.16 K, 222.6 kPa	957.3 kg/m3 and 957.2 kg/m3
343.16 K, 224.6 kPa	957.2 kg/m3
343.16 K, 224.8 kPa	957.1 kg/m3
343.16 K, 225.2 kPa	957.3 kg/m3
343.16 K, 225.5 kPa	957.3 kg/m3 and 957.2 kg/m3
343.16 K, 225.7 kPa	957.2 kg/m3
343.16 K, 226 kPa	957.2 kg/m3
343.16 K, 226.2 kPa	957.2 kg/m3
343.16 K, 226.4 kPa	957.1 kg/m3
343.16 K, 226.6 kPa	957.3 kg/m3
343.16 K, 226.7 kPa	957.2 kg/m3
343.16 K, 227.3 kPa	957.3 kg/m3
343.16 K, 227.4 kPa	957.3 kg/m3
343.16 K, 227.6 kPa	957.3 kg/m3
343.16 K, 227.8 kPa	957.3 kg/m3
343.16 K, 227.9 kPa	957.2 kg/m3
343.16 K, 228 kPa	957.3 kg/m3 and 957.2 kg/m3
343.16 K, 228.1 kPa	957.4 kg/m3
343.16 K, 228.3 kPa	957.1 kg/m3 and 957.2 kg/m3
343.16 K, 228.8 kPa	957.2 kg/m3 and 957.3 kg/m3
343.16 K, 229 kPa	957.3 kg/m3
343.16 K, 229.2 kPa	957.3 kg/m3 and 957.2 kg/m3
343.16 K, 229.3 kPa	957.2 kg/m3
343.16 K, 229.7 kPa	957.1 kg/m3 and 957.3 kg/m3
343.16 K, 229.9 kPa	957.3 kg/m3
343.16 K, 230.1 kPa	957.4 kg/m3
343.16 K, 230.4 kPa	957.3 kg/m3
343.16 K, 230.6 kPa	957.2 kg/m3
343.16 K, 230.7 kPa	957.2 kg/m3
343.16 K, 230.9 kPa	957.3 kg/m3
343.16 K, 231.4 kPa	957.1 kg/m3
343.16 K, 239.3 kPa	957.2 kg/m3
343.16 K, 239.4 kPa	957.2 kg/m3
343.16 K, 239.6 kPa	957.3 kg/m3
343.16 K, 239.8 kPa	957.2 kg/m3
343.16 K, 239.9 kPa	957.3 kg/m3
343.16 K, 241.9 kPa	957.3 kg/m3
343.16 K, 246.2 kPa	957.2 kg/m3
343.16 K, 246.5 kPa	957.2 kg/m3
343.16 K, 246.9 kPa	957.2 kg/m3
343.16 K, 247.1 kPa	957.2 kg/m3
343.16 K, 247.2 kPa	957.3 kg/m3
343.16 K, 247.4 kPa	957.3 kg/m3
343.16 K, 247.6 kPa	957.2 kg/m3 and 957.3 kg/m3
343.16 K, 247.8 kPa	957.2 kg/m3 and 957.3 kg/m3
343.16 K, 247.9 kPa	957.4 kg/m3 and 957.3 kg/m3
343.16 K, 248.1 kPa	957.4 kg/m3
343.16 K, 248.3 kPa	957.3 kg/m3
343.16 K, 248.6 kPa	957.3 kg/m3
343.16 K, 248.8 kPa	957.3 kg/m3 and 957.2 kg/m3
343.16 K, 249 kPa	957.2 kg/m3
343.16 K, 249.2 kPa	957.2 kg/m3
343.16 K, 249.8 kPa	957.2 kg/m3
343.16 K, 250.4 kPa	957.2 kg/m3
343.16 K, 250.6 kPa	957.3 kg/m3
343.16 K, 250.7 kPa	957.1 kg/m3
343.16 K, 250.9 kPa	957.3 kg/m3 and 957.2 kg/m3
